One series relates to CYP3A4. As for the experimental part: (§1) Samples were incubated for 48 h at 37 °C in 5% CO2, and the medium was exchanged with 250 μL of fresh medium containing drugs or the vehicle every 24 h.
(§2) The effects of mertansine on CYP1A2, CYP2B6, and CYP3A4 activities were evaluated. […] Mixtures were vortexed for 2 min and then centrifuged at 13,000 g for 4 min at 4 °C. The supernatant (40 µL) was diluted with 60 µL of deionized water and then mixed for 2 min by vortexing. An aliquot (5 µL) was analyzed using LC-MS/MS [37], and CYP1A2, CYP2B6, and CYP3A4 enzyme activities were expressed as formation rates (pmol/million cells/min).
(§3) The percentage changes in enzymatic activities were calculated as (CYP activity with test compound treatment/CYP activity with vehicle control treatment) × 100. The IC50 (the concentration of the inhibitor needed for half-maximal inhibition) values were calculated using SigmaPlot ver. […] Ki (the inhibition constant) and the inhibition mode of UGT1A1, UGT1A3, and UGT1A4 activities were determined using Enzyme Kinetics ver. 1.1 (Systat Software, Inc.).

The test system of the next series is CYP1A2. Kind of series: CYP1A2-catalyzed phenacetin O-deethylase activity in human hepatocytes after 48 h treatment. The protocol:
as §1, §2, §3

The next series relates to UGT1A4 mRNA. Kind of series: UGT1A4 mRNA level in human hepatocytes after 48 h treatment (RT-PCR). To be noted: for IC50: read-out: IC50, suppression of UGT1A4 mRNA expression, 1.25–2500 nM.
The mark [1] stands for this setting: mertansine 48 h, three human hepatocytes.

Read-outs that look alike come from different tables or passages of the source. Some results are limits rather than exact numbers.

Consider `COc1cc2cc(c1Cl)N(C)C(=O)CC(OC(=O)C(C)N(C)C(=O)CCS)C1(C)OC1C(C)C1CC(O)(NC(=O)O1)C(OC)C=CC=C(C)C2` (centres unmarked) [mertansine, Mertansine], for which, in the series with CYP3A4 (human, hepatocytes), the “Mean decrease of CYP3A4-mediated midazolam 1′-hydroxylase activity” value was determined as 39.7%. Moreover, in the series with CYP3A4 (setting [1]), the “Decrease of CYP3A4-mediated midazolam 1′-hydroxylase activity compared to vehicle” value is on record as 30.8–62.7%. Moreover, in the series on CYP1A2 (highest concentration (2500 nM), 48 h, mean of three human hepatocytes), the “Mean decrease of CYP1A2-mediated phenacetin O-deethylase activity” value came to 48.3%. The “Decrease of CYP1A2-mediated phenacetin O-deethylase activity compared to vehicle” value in the series with CYP1A2 (setting [1]) is 27.8–79.0%. Also, in the series on UGT1A4 mRNA (human), the IC50 at 48 h is greater than 2.5 µM. Moreover, the IC50 is greater than 2.5 µM in the series with UGT1A4 mRNA (human hepatocytes Lot 319, 48 h); greater than 2.5 µM in the series with UGT1A4 mRNA (human hepatocytes Lot 321, 48 h); greater than 2.5 µM in the series with UGT1A4 mRNA (human hepatocytes Lot 361, 48 h).

The term IC50 denotes the point on the concentration scale where inhibition reaches its midpoint.
